Where “and” joins values, the source holds several entries; their conditions need not be identical. Equal entries are not always repeated.
What was measured:
Format in all cases: ADME, organism-based
Homo sapiens [1] = test: Evaluation of pharmacokinetic parameters for 14 OH-Clarithromycin following multiple oral doses of Clarithromycin tablets.; parameters: dose 250 mg, dose 500 mg, dose 1000 mg, route oral; details: in vivo, dosed compound id 21, dosed compound name CLARITHROMYCIN, tissue Plasma
[2] = (§1) Evaluation of pharmacokinetic parameters for Clarithromycin following multiple oral doses of Clarithromycin tablets.; parameters: dose 250 mg, dose 500 mg, dose 1000 mg, route oral; details: human, in vivo, dosed compound id 21, dosed compound name CLARITHROMYCIN, route oral
Homo sapiens [3] = test: as §1; parameters: dose 250 mg, dose 500 mg, dose 1000 mg, route oral; details: in vivo, po, dosed compound id 21, dosed compound name CLARITHROMYCIN, regimen Every 12h; for Excretion: tissue Urine
[4] = (§2) Tmax for Clarithromycin evaluated after a single oral dose of 500 mg Clarithromycin tablets to fed and fasted subjects; details: human, in vivo, dietary status Fed, dosed compound id 21, dosed compound name CLARITHROMYCIN, regimen Single dose, tissue Plasma
Homo sapiens [5] = test: as §2; details: in vivo, po, dietary status Fasting, dosed compound id 21, dosed compound name CLARITHROMYCIN, regimen Single dose, tissue Plasma

| Structure (SMILES) | t1/2 (Homo sapiens [1]; dose 250 mg, regimen Every 12h, route oral) [h] | Tmax (Homo sapiens [1]; dose 500 mg, gender male and female, regimen Every 24h, route oral) [h] | t1/2 (Homo sapiens [1]; dose 500 mg, regimen Every 12h, route oral) [h] | Cmax ss (Homo sapiens [1]; gender male and female, regimen Every 24h) [ng/mL] | Cmax ss (Homo sapiens [1]; regimen Every 12h) | dose excreted ([2]; po, at 250 mg, regimen Every 12h, tissue Urine, read-out: Excretion) [%] | Tmax ([2]; dose 500 mg, gender male and female, regimen Every 24h, tissue Plasma) [h] | half-life ([2]; dose 500 mg, regimen Every 12h, tissue Plasma) [h] | Excretion (Homo sapiens [3]; at 250 mg) [%] | Excretion (Homo sapiens [3]; at 500 mg) [%] | t1/2 (Homo sapiens [3]; dose 250 mg, tissue Plasma) [h] | Cmax ss (Homo sapiens [3]; gender male and female, tissue Plasma) | Cmax ss (Homo sapiens [3]; sampling time1 3 days, tissue Plasma) | Tmax [4] [h] | Tmax (Homo sapiens [5]) [h] |
| --- | --- | --- | --- | --- | --- | --- | --- | --- | --- | --- | --- | --- | --- | --- | --- |
| CO[C@]1(C)C[C@@H](C)C(=O)[C@H](C)[C@@H](O)[C@](C)(O)[C@@H](C(C)O)OC(=O)[C@H](C)[C@@H](O[C@H]2C[C@@](C)(OC)[C@@H](O)[C@H](C)O2)[C@H](C)[C@H]1O[C@@H]1O[C@H](C)C[C@H](N(C)C)[C@H]1O (stereo not given in full) | 5 to 6 | 6 | 7 to 9 | 800 | 600 ng/mL and 1000 ng/mL | – | – | – | – | – | – | – | – | – | – |
| CC[C@H]1OC(=O)[C@H](C)[C@@H](O[C@H]2C[C@@](C)(OC)[C@@H](O)[C@H](C)O2)[C@H](C)[C@@H](O[C@@H]2O[C@H](C)C[C@H](N(C)C)[C@H]2O)[C@](C)(OC)C[C@@H](C)C(=O)[C@H](C)[C@@H](O)[C@]1(C)O [CLARITHROMYCIN] | – | – | – | – | – | 40 | 5 to 6 | 5 to 7 | 20 | 30 | 3 to 4 | 2000 to 4000 ng/mL and 5000 to 10000 ng/mL | 1000 to 2000 ng/mL and 3000 to 4000 ng/mL | 2.5 | 2 |
